How the values were obtained:
MYCN = MYCN qRT-PCR and western blot in DIPG-13p cells; format: cell-based, human
Experimental: Cell pellets were lysed in PLC lysis buffer containing protease and phosphatase inhibitors (Roche Inc.). Protein lysates were quantified using the bicinchoninic acid (BCA) assay (Pierce Chemical Co., Rockford, Ill.). 30 μg of total protein lysate was loaded in 10% SDS-PAGE gels and electrophoresed. Proteins were transferred to PVDF membranes using a semi-dry transfer apparatus (Bio-Rad). Membranes were blocked for one hour and probed for various proteins overnight in 5% non-fat milk or 5% BSA in Tris Buffered Saline Solution, 0.5% Tween-20 (TBST) or Phosphate Buffered Saline Solution with 0.5% Tween-20 (PBST). […] Binding was detected using Chemiluminescence Reagent Plus (PerkinElmer Inc., MA, USA). […]
Total RNA isolation was performed using an RNA extraction kit according to the manufacturer's instructions (RNeasy kit, Qiagen). cDNA was synthesized from 100 ng of total RNA using the Quantitect RT kit which included DNAse treatment (Qiagen). Quantitative real-time PCR was performed on 10 ng of cDNA template in a final volume of 20 μl using the Chromo4 Real Time PCR detector (MJ Research, a Division of Bio-Rad Laboratories Ltd) using SYBR green fluorescence. RT-PCR data was analyzed using Opticon Monitor 3.1.3 analysis software. […]

NSCs = experiment: Alamar blue viability EC50 in neural stem cells; format: cell-based, human
Experimental: Human Neural Stem Cells (H9 hESC-Derived) were purchased from Invitrogen and grown in DMEM/F12 containing penicillin/streptomycin/amphotericin B (1% vol/vol) supplemented with N2 (2% vol/vol; Invitrogen), EGF (20 ng/ml; Invitrogen), and FGF-2 (20 ng/ml; Invitrogen). DIPG cell lines (all with the H3K27M mutation) SU-DIPG-IV (DIPG-IV), SU-DIPG-13p (DIPG-13p), and HSJD-DIPG-007 (DIPG-007) were grown and passaged in DIPG medium as previously reported (Grasso et al., Nature medicine 2015; 21:555-9; Nagaraja et al., Cancer cell 2017; 31:635-52 e6; Vinci et al., Nature medicine 2018). SF8628 and immortalized NHAs were grown in DMEM (Invitrogen) supplemented with 10% FBS (Invitrogen). All cell lines were confirmed by STR profiling and tested mycoplasma negative by PCR. All tumor-derived cell lines used are described in Table 2.
Direct cell counts were performed using the Countess II FL Automated Cell Counter (ThermoFisher Scientific). Alamar blue viability (ThermoFisher Scientific) and the 5-bromo-2′-deoxyuridine (BrdU) incorporated cell proliferation assay (Cell Signaling Technology Cat #6813) were performed using the manufacturer's standard protocol. EC50 curve analysis was performed using raw fluorescent Alamar blue values that were inputted into PRISM 7.0. Drug concentrations were log 10 transformed and values normalized to percent viability with respect to vehicle treated cells. […]

CCOc1cc(C(=O)N2CCC(N3CCN(C)CC3)CC2)ccc1Nc1ncc2c(n1)N(C1CCCC1)c1ccccc1C(=O)N2C [ERK5-IN-1, 11-cyclopentyl-2-[[2-ethoxy-4-[[4-(4-methyl-1-piperazinyl)-1-piperidinyl]carbonyl]phenyl]amino]-5,11-dihydro-5-methyl-6H-pyrimido[4,5b][1,4]benzodiazepin-6-one]
MYCN protein and transcript levels (MYCN): down-regulation
ERK5-IN-1 EC50 values (NSCs; NSCs and NSCs over expressing wildtype H3, compared to H3K27M DIPG and hemispheric pGBM lines): higher
ERK5-IN-1 EC50 values (NSCs; NSCs expressing H3K27M): significantly lower

From patent US20220031710A1, “USE OF ERK5 INHIBITORS FOR TREATING GLIOMAS IN PEDIATRIC SUBJECTS” (UNIVERSITY OF PITTSBURGH - OF THE COMMONWEALTH SYSTEM OF …, priority 2019, published 2022)
